Data taken from the NIST ThermoML archive (doi:10.1016/j.jct.2015.12.005).

What was measured:
[1] = molar heat capacity at saturation pressure
[2] = Molar enthalpy of transition or fusion; settings: Adiabatic calorimetry

c1ccc2c(c1)CCC2 [indane]
molar heat capacity [J/K/mol], [1]
Settings	Crystal 1, Vacuum adiabatic calorimetry	Crystal 2, Vacuum adiabatic calorimetry
5 K	–	0.291
5.31 K	–	0.3492
6.26 K	–	0.6236
7.189 K	–	0.9811
8.165 K	–	1.463
9.174 K	–	2.12
10 K	–	2.735
10.22 K	–	2.918
11.36 K	–	3.891
12.63 K	–	5.097
14.04 K	–	6.61
15.6 K	–	8.364
17.35 K	–	10.43
19.29 K	–	12.76
20 K	–	13.61
21.45 K	–	15.35
23.86 K	–	18.19
26.55 K	–	21.27
29.53 K	–	24.47
30 K	–	24.96
32.82 K	–	27.82
36.45 K	–	31.27
40 K	–	34.44
40.47 K	–	34.84
44.94 K	–	38.64
49.87 K	–	42.67
50 K	–	42.77
52.71 K	–	44.96
55.33 K	–	47.14
57.68 K	–	49.16
60 K	–	51.24
62 K	–	53.22
62.18 K	–	53.45
62.48 K	–	53.74
63.41 K	–	54.75
64 K	–	55.47
66 K	–	57.83
67.11 K	–	59.51
68 K	–	60.76
70 K	–	64.04
70.7 K	–	67.01
70.76 K	–	67.17
72 K	–	67.68
72.08 K	–	72.89
72.27 K	–	74.46
72.75 K	–	77.96
73.08 K	–	82.15
73.38 K	–	89.8
73.83 K	57.49	71.43
74 K	57.55	–
74.14 K	63.18	–
74.52 K	59.93	–
74.89 K	59.45	–
76 K	58.28	–
76.02 K	59.19	–
77.68 K	59.3	–
78 K	59.01	–
79.98 K	59.88	–
80 K	59.74	–
82.01 K	60.53	–
82.05 K	60.55	–
82.97 K	60.84	–
83.17 K	60.91	–
90 K	63.39	–
91.46 K	63.9	–
100 K	67.07	–
100.48 K	67.26	–
110.07 K	70.8	–
119.85 K	74.38	–
120 K	74.45	–
129.73 K	78.16	–
138.66 K	81.54	–
139.61 K	81.94	–
140 K	82.06	–
148.52 K	85.42	–
158.5 K	89.5	–
160 K	90.14	–
168.63 K	93.87	–
178.81 K	98.43	–
180 K	99	–
184.22 K	100.9	–
189.01 K	103.32	–
194.75 K	106.22	–
199.29 K	108.5	–
200 K	108.89	–
205.19 K	111.62	–
209.54 K	113.96	–
212.42 K	115.59	–
214.32 K	116.35	–
220 K	119.51	–
221.79 K	120.47	–

[1], Liquid
Settings	molar heat capacity [J/K/mol]
221.79 K, Vacuum adiabatic calorimetry	163.91
228.22 K, Vacuum adiabatic calorimetry	165.72
228.34 K, Vacuum adiabatic calorimetry	165.76
229.69 K, Vacuum adiabatic calorimetry	166.13
229.78 K, Vacuum adiabatic calorimetry	166.24
230 K, Vacuum adiabatic calorimetry	166.22
236.45 K, Vacuum adiabatic calorimetry	168.04
238.81 K, Vacuum adiabatic calorimetry	168.76
240 K, Vacuum adiabatic calorimetry	169.13
250 K, Vacuum adiabatic calorimetry	172.31
250.13 K, Vacuum adiabatic calorimetry	172.35
260 K, Vacuum adiabatic calorimetry	175.75
262.1 K, Vacuum adiabatic calorimetry	176.48
262.28 K, Vacuum adiabatic calorimetry	176.54
270 K, Vacuum adiabatic calorimetry	179.48
274.49 K, Vacuum adiabatic calorimetry	181.2
275.32 K, Vacuum adiabatic calorimetry	181.5
280 K, Vacuum adiabatic calorimetry	183.04
286.77 K, Vacuum adiabatic calorimetry	185.35
288.6 K, Vacuum adiabatic calorimetry	185.93
290 K, Vacuum adiabatic calorimetry	186.46
297.89 K, Vacuum adiabatic calorimetry	189.38
298.15 K, Vacuum adiabatic calorimetry	189.48
299.11 K, Vacuum adiabatic calorimetry	189.82
300 K, Vacuum adiabatic calorimetry	190.18
301.9 K, Vacuum adiabatic calorimetry	190.91
310 K, Vacuum adiabatic calorimetry	194.12
310.2 K, Vacuum adiabatic calorimetry	194.19
311.46 K, Vacuum adiabatic calorimetry	194.67
320 K, Vacuum adiabatic calorimetry	198.07
322.46 K, Vacuum adiabatic calorimetry	199.08
330 K, Vacuum adiabatic calorimetry	202.15
333.38 K, Vacuum adiabatic calorimetry	203.54
334.63 K, Vacuum adiabatic calorimetry	204.04
340 K, Vacuum adiabatic calorimetry	206.3
347.49 K, Vacuum adiabatic calorimetry	209.45
350 K, Vacuum adiabatic calorimetry	210.48
360 K, Vacuum adiabatic calorimetry	214.61
360.87 K, Vacuum adiabatic calorimetry	214.96
370 K, Vacuum adiabatic calorimetry	218.8
374.71 K, Vacuum adiabatic calorimetry	220.8
380 K, Vacuum adiabatic calorimetry	223.03
388.61 K, Vacuum adiabatic calorimetry	226.66
390 K, Vacuum adiabatic calorimetry	227.25
400 K, Vacuum adiabatic calorimetry	231.47
402.42 K, Vacuum adiabatic calorimetry	232.49
409.24 K, Vacuum adiabatic calorimetry	235.36
410 K, Vacuum adiabatic calorimetry	235.68
415.99 K, Vacuum adiabatic calorimetry	238.21
420 K, Vacuum adiabatic calorimetry	239.88
426.54 K, Vacuum adiabatic calorimetry	242.6
428.9 K, Vacuum adiabatic calorimetry	243.53
430 K, Vacuum adiabatic calorimetry	244.05
439.86 K, Vacuum adiabatic calorimetry	248.28
440 K, Vacuum adiabatic calorimetry	248.4
450 K, Small sample (50 mg) DSC	253.17
460 K, Small sample (50 mg) DSC	258.04
470 K, Small sample (50 mg) DSC	262.7
480 K, Small sample (50 mg) DSC	267.2
490 K, Small sample (50 mg) DSC	271.71
500 K, Small sample (50 mg) DSC	276.21
510 K, Small sample (50 mg) DSC	280.72
520 K, Small sample (50 mg) DSC	285.23
530 K, Small sample (50 mg) DSC	289.72
540 K, Small sample (50 mg) DSC	294.22
550 K, Small sample (50 mg) DSC	298.7
560 K, Small sample (50 mg) DSC	303.18
570 K, Small sample (50 mg) DSC	307.65
580 K, Small sample (50 mg) DSC	312.12
590 K, Small sample (50 mg) DSC	316.59
600 K, Small sample (50 mg) DSC	321.05

[2]
Settings	Molar enthalpy of transition or fusion [kcal/mol]
Crystal 1	2.044
Crystal 2	0.0363
